Key:
Type in all cases: in vivo
[1] = test system: small-flower umbrella sedge (Cyperus difformis); assay: Test C flooded paddy test plant response; settings: Flood, 250 g ai/ha; scale of 0 to 100 where 0 is no effect and 100 is complete control; 13 to 15 days
Procedure, shortened: (§1)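 Water-applied treatment: compounds go directly into floodwater standing 3 cm over the soil of pots holding 2-leaf-stage plants. Depth is kept constant; plants stay in a greenhouse 13 to 15 days before visual comparison with controls on a 0–100 scale.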

[2] = test system: ducksalad (Heteranthera limosa); assay: Test C flooded paddy test plant response; settings: Flood, 250 g ai/ha; scale of 0 to 100 where 0 is no effect and 100 is complete control; 13 to 15 days
Procedure, shortened: as §1

[3] = test system: barnyardgrass (Echinochloa crus-galli); assay: Test C flooded paddy test plant response; settings: Flood, 250 g ai/ha; scale of 0 to 100 where 0 is no effect and 100 is complete control; 13 to 15 days
Procedure, shortened: as §1

rice (Oryza sativa) = assay: Test C flooded paddy test plant response; settings: Flood, 250 g ai/ha; scale of 0 to 100 where 0 is no effect and 100 is complete control; 13 to 15 days
Procedure, shortened: as §1

kochia (Kochia scoparia) = assay: Test B pre-/postemergence plant response
Procedure, shortened: (§2)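 Scoring used a 0–100 scale (100 = complete control) by visual comparison with untreated plants after approximately 10 days in the greenhouse. Compounds, in surfactant-containing non-phytotoxic solvent, were sprayed onto soil at planting or onto 2–10 cm seedlings.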

corn (Zea mays) = assay: Test B pre-/postemergence plant response
Procedure, shortened: as §2

[4] = test system: Italian ryegrass (Lolium multiflorum); assay: Test B pre-/postemergence plant response
Procedure, shortened: as §2

[5] = test system: barnyardgrass (Echinochloa crus-galli); assay: Test B pre-/postemergence plant response
Procedure, shortened: as §2

[6] = test system: pigweed (Amaranthus retroflexus); assay: Test B pre-/postemergence plant response
Procedure, shortened: as §2

[7] = test system: giant foxtail (Setaria faberii); assay: Test B pre-/postemergence plant response
Procedure, shortened: as §2

[8] = test system: ragweed (common ragweed, Ambrosia elatior); assay: Test B pre-/postemergence plant response
Procedure, shortened: as §2

[9] = test system: wheat (Triticum aestivum); assay: Test B pre-/postemergence plant response
Procedure, shortened: as §2

[10] = test system: galium (catchweed bedstraw, Galium aparine); assay: Test B postemergence plant response
Procedure, shortened: (§3)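 Pots, loam soil + sand; postemergence treatment at 1–2 leaf stage, 2–10 cm; greenhouse ~10 d; visual injury score 0 (none) to 100 (complete control) relative to untreated controls.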

[11] = test system: blackgrass (Alopecurus myosuroides); assay: Test B postemergence plant response
Procedure, shortened: as §3

[12] = 31 g ai/ha, Postemergence, 0 to 100 scale, 0 no effect, 100 complete control
[13] = 125 g ai/ha, postemergence, 0 to 100 scale, 0 no effect, 100 complete control
[14] = Preemergence, 31 g ai/ha, 0 to 100 scale (0 no effect, 100 complete control)
[15] = Preemergence, 125 g ai/ha, 0 to 100 scale where 0 is no effect and 100 is complete control
[16] = Postemergence, 500 g ai/ha, 0 to 100 scale (0 no effect, 100 complete control)
[17] = Preemergence, 125 g ai/ha, 0 to 100 scale (0 no effect, 100 complete control)
[18] = Preemergence, 500 g ai/ha, 0 to 100 scale where 0 is no effect and 100 is complete control

COc1cccc(Oc2ncc(Cl)cn2)c1-c1cc(C(F)(F)F)on1 [Compound 105]
45: Barnyardgrass plant response rating [3]
70: Sedge, Umbrella plant response rating [1] | Plant response rating, Kochia (kochia (Kochia scoparia); [13]) | Plant response rating, Barnyardgrass [5, 13] | Foxtail, Giant plant response rating [7, 14] | Plant response rating, Galium [10, 12] | Plant response rating, Blackgrass [11, 12]
35: Rice plant response rating (rice (Oryza sativa))
30: Plant response rating, Kochia (kochia (Kochia scoparia); [12]) | Plant response rating, Ragweed [8, 13]
10: Plant response rating, Kochia (kochia (Kochia scoparia); [15]) | Plant response rating, Corn (corn (Zea mays); [12]) | Plant response rating, Ryegrass, Italian [4, 13] | Plant response rating, Barnyardgrass [5, 12] | Plant response rating, Ragweed [8, 12] | Plant response rating, Wheat [9, 13]
80: Plant response rating, Foxtail, Giant [7, 13]
90: Plant response rating, Barnyardgrass [5, 15] | Plant response rating, Pigweed [6, 12]
0: Kochia plant response rating (kochia (Kochia scoparia); [14]) | Plant response rating, Ryegrass, Italian [4, 12] | Ryegrass, Italian plant response rating [4, 14] | Ragweed plant response rating [8, 14] | Plant response rating, Ragweed [8, 15] | Plant response rating, Wheat [9, 12]
20: Plant response rating, Corn (corn (Zea mays); [13]) | Plant response rating, Ryegrass, Italian [4, 15] | Barnyardgrass plant response rating [5, 14]
100: Plant response rating, Pigweed [6, 13] | Pigweed plant response rating [6, 14] | Plant response rating, Pigweed [6, 15] | Plant response rating, Foxtail, Giant [7, 15] | Plant response rating, Galium [10, 13] | Plant response rating, Blackgrass [11, 13]
40: Ducksalad plant response rating [2] | Plant response rating, Foxtail, Giant [7, 12]

Clc1cnc(Oc2ccccc2-c2cccs2)nc1 [Compound 182]
20: Plant response rating, Corn (corn (Zea mays); [16]) | Plant response rating, Barnyardgrass [5, 18]
40: Plant response rating, Pigweed [6, 13] | Plant response rating, Pigweed [6, 18] | Plant response rating, Foxtail, Giant [7, 18]
80: Plant response rating, Kochia (kochia (Kochia scoparia); [16]) | Plant response rating, Pigweed [6, 16]
30: Plant response rating, Kochia (kochia (Kochia scoparia); [13]) | Plant response rating, Kochia (kochia (Kochia scoparia); [18]) | Plant response rating, Galium [10, 13]
50: Plant response rating, Foxtail, Giant [7, 16] | Plant response rating, Galium [10, 16]
10: Plant response rating, Corn (corn (Zea mays); [13]) | Plant response rating, Ryegrass, Italian [4, 18] | Plant response rating, Barnyardgrass [5, 16] | Plant response rating, Ragweed [8, 16] | Plant response rating, Ragweed [8, 18] | Plant response rating, Blackgrass [11, 16]
0: Sedge, Umbrella plant response rating [1] | Ducksalad plant response rating [2] | Barnyardgrass plant response rating [3] | Rice plant response rating (rice (Oryza sativa)) | Kochia plant response rating (kochia (Kochia scoparia); [17]) | Plant response rating, Ryegrass, Italian [4, 13] | Plant response rating, Ryegrass, Italian [4, 16] | Ryegrass, Italian plant response rating [4, 17] | Plant response rating, Barnyardgrass [5, 13] | Barnyardgrass plant response rating [5, 17] | Pigweed plant response rating [6, 17] | Plant response rating, Foxtail, Giant [7, 13] | Foxtail, Giant plant response rating [7, 17] | Plant response rating, Ragweed [8, 13] | Ragweed plant response rating [8, 17] | Plant response rating, Wheat [9, 13] | Plant response rating, Wheat [9, 16] | Plant response rating, Blackgrass [11, 13]
